Data: publication PMC7144380 (Molecules, 2020)
Like-named read-outs stand apart in the source and are kept apart here.

Assays:
MOR, mouse vas deferens = target: T1, MOR, mouse vas deferens (Mus musculus, UniProt P42866); settings: read-out: EC50 ± S.E.M. (nM) / MVD
T1 construct: gene Oprm1; native receptor in isolated mouse vas deferens

[1] = target: T2, δ-opioid receptor (DOR), rat (Rattus norvegicus, UniProt P33533); test: [3H]Ile5,6-deltorphin II competition, rat brain membranes; assay type: binding; settings: 50 mM Tris-HCl pH 7.4, 35 °C, 45 min; unreliable (incomplete displacement)
T2 construct: gene Oprd1; native receptor in rat brain membrane homogenate

[2] = target: T3, µ-opioid receptor (MOR), rat (Rattus norvegicus, UniProt P33535); assay type: binding; settings: read-out: Ki ± S.E.M. (nM) / [^3H]DAMGO (μ) ^1
T3 construct: gene Oprm1; native receptor in rat brain membrane homogenate or rat vas deferens

[3] = target: T2, δ-opioid receptor (DOR), rat; test: [3H]Ile5,6-deltorphin II competition, rat brain membranes; assay type: binding; settings: read-out: Ki ± S.E.M. (nM) / [^3H]IleDelt II (δ) ^1; 50 mM Tris-HCl pH 7.4, 35 °C, 45 min; Cheng-Prusoff
[4] = target: T3, µ-opioid receptor (MOR), rat; test: […]GTPγS binding, rat brain membranes; assay type: biochemical; settings: read-out: EC50 ± S.E.M.; agonist; pH 7.4, 30 °C, 60 min, 30 µM GDP; mixed opioid receptors in tissue, assigned to MOR by the authors
[5] = target: T4, κ-opioid receptor (KOR), guinea pig (Cavia porcellus, UniProt P41144); test: [3H]U-69593 competition, guinea pig brain membranes; assay type: binding; settings: 50 mM Tris-HCl pH 7.4, 30 °C, 30 min; unreliable (partial displacement)
T4 construct: gene OPRK1; native receptor in guinea pig brain membrane homogenate
Description: [3H]U-69593 competition, guinea pig brain membranes on κ-opioid receptor (KOR), guinea pig

[6] = target: T2, δ-opioid receptor (DOR), rat; test: […]GTPγS binding, rat brain membranes; assay type: biochemical; settings: agonist; pH 7.4, 30 °C, 60 min, 30 µM GDP

For `COc1ccc2c3c1O[C@H]1[C@@H](OS(=O)(=O)O)C=C[C@H]4[C@@H](C2)N(C)CC[C@@]341` [codeine-6-O-sulfate], the EC50 (MOR, mouse vas deferens; agonist, Mg2+-free Krebs, 31 °C, MOR assigned by naloxone Ke) was over 1000 nM, the “Ki ± S.E.M. (nM) / [^3H]IleDelt II (δ) ^1” value [1] was 968.28 ± 471.38 nM and the Ki ([2]; 50 mM Tris-HCl pH 7.4, 35 °C, 45 min, Cheng-Prusoff) was 96.9 ± 20.3 nM.
Work on `COc1ccc2c3c1O[C@H]1[C@@H](OS(=O)(=O)O)C=C[C@@]4(OC)[C@@H](C2)N(C)CC[C@]314` [14-methoxycodeine-6-O-sulfate] yielded a Ki [3] of 346 ± 133 nM, an EC50 (MOR, mouse vas deferens) of 239 ± 6.15 nM and an EC50 [4] of 301 ± 197 nM. For the same compound, the “Ki ± S.E.M. (nM) / [^3H]U-69593 (κ) ^2” value [5] was 245.57 ± 215.01 nM and the Ki [2] was 3.37 ± 0.48 nM.
Work on `CC(C)[C@H](NC(=O)[C@H](CCC(=O)O)NC(=O)[C@H](Cc1ccccc1)NC(=O)[C@@H](C)NC(=O)[C@@H](N)Cc1ccc(O)cc1)C(=O)N[C@H](C(=O)NCC(N)=O)C(C)C` [deltorphin II] yielded an EC50 [6] of 44.4 ± 23.5 nM.
